From US8748467B2, “Topical formulation” (Bayer Intellectual Property GmbH, priority 2007, dated 2014)

Assays:
total thyroxine (tT4) = assay: Total thyroxine (tT4) assays before and after each week's treatment (Example 1); type: in vivo; conditions: cats; twice daily for a week
Source text: At least a fortnight was allowed between treatments.

[1] = in vivo
Description: They received standard oral carbimazole (Neomercazole, AFT Pharmaceuticals Ltd) tablets 5 mg administered twice daily for a week, followed by a test formulation of transdermal carbimazole (Test Formulation 1, Table 1, Example 2, below) 10 mg administered twice daily for a week, followed by Hoffman's (2002) transdermal formulation of carbimazole in poloxamer lecithin organogel (PLO), 10 mg administered twice daily for a week. At least a fortnight was allowed between treatments.

[2] = Hoffman et al, 2002; cited from earlier work

plasma methimazole levels relative to the published therapeutic range [1] | Structure (SMILES) | tT4 concentrations over the seven days of the trial period (total thyroxine (tT4)) | published plasma levels with methimazole [2] [µg/mL]
in the published therapeutic range | CCOC(=O)n1ccn(C)c1=S [carbimazole] | approximately halved | 
 | Cn1cc[nH]c1=S [methimazole] |  | 0.51 ± 0.15
